This is an account of results in patent publication US20010014682A1, “Fibrinogen receptor antagonists” (SmithKline Beecham Corporation, priority 1997, published 2001).

The structures appear in SMILES notation.

The test deals with T1, fibrinogen receptor (GPIIb-IIIa) (Homo sapiens, UniProt P05106+P08514).
T1 construct: The lectin-retained GPIIb-IIIa was eluted with buffer A containing 10% dextrose; tissue Red Cross; host or cells: human platelets
As to the kind of experiment: Competitive binding to GPIIb-IIIa using [3H]-SK&F-107260 as RGD-type ligand. Conditions: read-out: Ki for inhibition of [3H]-SK&F 107260 binding.

T1 sequence (P08514 32-887 limits assumed): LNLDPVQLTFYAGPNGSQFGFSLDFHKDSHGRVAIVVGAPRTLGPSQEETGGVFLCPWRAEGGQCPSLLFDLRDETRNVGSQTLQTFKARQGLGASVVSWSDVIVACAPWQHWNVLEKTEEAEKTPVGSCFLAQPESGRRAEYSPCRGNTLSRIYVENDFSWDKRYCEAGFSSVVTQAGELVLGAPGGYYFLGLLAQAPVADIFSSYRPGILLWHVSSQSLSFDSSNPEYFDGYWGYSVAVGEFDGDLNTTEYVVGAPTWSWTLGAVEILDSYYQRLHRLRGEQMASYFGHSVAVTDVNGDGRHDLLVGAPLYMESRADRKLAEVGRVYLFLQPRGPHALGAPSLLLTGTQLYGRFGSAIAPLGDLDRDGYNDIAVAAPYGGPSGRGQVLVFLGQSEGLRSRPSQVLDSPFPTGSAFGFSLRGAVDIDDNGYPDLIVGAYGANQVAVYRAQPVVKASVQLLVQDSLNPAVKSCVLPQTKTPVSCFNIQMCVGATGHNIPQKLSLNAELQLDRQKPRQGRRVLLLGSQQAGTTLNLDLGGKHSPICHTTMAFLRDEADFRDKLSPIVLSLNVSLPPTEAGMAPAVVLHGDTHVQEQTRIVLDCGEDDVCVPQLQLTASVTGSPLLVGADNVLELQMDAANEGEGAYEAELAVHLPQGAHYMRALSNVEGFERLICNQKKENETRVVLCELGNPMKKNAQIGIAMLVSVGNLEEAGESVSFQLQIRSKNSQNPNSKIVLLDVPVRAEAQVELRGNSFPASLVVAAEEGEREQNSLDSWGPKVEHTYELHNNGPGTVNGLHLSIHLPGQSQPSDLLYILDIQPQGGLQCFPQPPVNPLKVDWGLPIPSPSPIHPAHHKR
T1 sequence (P08514 891-1039 limits assumed): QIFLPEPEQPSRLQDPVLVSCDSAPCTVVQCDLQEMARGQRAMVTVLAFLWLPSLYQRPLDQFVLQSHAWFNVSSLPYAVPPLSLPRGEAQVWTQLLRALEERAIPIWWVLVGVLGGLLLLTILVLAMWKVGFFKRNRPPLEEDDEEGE
T1 sequence (P05106 27-788): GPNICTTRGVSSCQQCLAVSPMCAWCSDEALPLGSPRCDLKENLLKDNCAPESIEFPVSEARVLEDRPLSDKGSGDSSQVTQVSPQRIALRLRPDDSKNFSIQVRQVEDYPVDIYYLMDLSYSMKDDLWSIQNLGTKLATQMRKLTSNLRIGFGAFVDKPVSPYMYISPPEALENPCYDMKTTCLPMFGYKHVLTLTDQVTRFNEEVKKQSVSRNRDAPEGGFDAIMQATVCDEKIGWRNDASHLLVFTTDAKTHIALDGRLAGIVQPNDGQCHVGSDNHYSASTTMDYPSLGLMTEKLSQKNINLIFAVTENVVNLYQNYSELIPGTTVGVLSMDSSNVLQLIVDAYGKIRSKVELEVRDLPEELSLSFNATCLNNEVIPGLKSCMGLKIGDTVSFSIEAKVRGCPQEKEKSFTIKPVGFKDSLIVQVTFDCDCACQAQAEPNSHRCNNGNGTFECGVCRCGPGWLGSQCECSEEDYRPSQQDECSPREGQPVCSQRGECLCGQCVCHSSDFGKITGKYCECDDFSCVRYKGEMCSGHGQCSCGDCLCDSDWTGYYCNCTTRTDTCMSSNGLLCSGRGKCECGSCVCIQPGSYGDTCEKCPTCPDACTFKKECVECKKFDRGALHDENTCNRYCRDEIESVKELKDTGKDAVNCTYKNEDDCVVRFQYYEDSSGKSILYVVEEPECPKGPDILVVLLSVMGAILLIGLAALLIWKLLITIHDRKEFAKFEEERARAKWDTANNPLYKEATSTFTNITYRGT

Broadly, the Ki is the dissociation constant of the complex between target and ligand, obtained from inhibition or displacement. For the compound `O=C(Nc1ccc(N2CCNCC2)cc1)C1CCN(C(C(=O)O)c2ccccc2)CC1` (stereo not shown) [Example 1, 4-[(4-(1-piperizinyl)phenyl)aminocarbonyl]-1-piperidine-1-phenylacetic Acid], the Ki is roughly 3.5 nM.
